Results as given in ChEMBL document CHEMBL1128031, “The design of dipeptide helical mimetics: the synthesis and biological activity of trisubstituted indanes” (Bioorg Med Chem Lett, 1994).
Peptide text beside a SMILES is read from it. * marks the point of attachment. Cbz = O=C(OCc1ccccc1)*

Tests used:
[1] = biological target: Substance-P receptor (Homo sapiens, UniProt P25103); experiment: Inhibition of [125I]BH-SP binding to tachykinin NK1 receptor in human IM-9 cells; format: cell-based
[2] = biological target: T1, Neuromedin-K receptor (Homo sapiens, UniProt P29371); experiment: Inhibition of [125I][MePhe]-NKB binding to human Tachykinin receptor 3 in CHO cells; format: cell-based
T1 sequence (P29371 whole entry): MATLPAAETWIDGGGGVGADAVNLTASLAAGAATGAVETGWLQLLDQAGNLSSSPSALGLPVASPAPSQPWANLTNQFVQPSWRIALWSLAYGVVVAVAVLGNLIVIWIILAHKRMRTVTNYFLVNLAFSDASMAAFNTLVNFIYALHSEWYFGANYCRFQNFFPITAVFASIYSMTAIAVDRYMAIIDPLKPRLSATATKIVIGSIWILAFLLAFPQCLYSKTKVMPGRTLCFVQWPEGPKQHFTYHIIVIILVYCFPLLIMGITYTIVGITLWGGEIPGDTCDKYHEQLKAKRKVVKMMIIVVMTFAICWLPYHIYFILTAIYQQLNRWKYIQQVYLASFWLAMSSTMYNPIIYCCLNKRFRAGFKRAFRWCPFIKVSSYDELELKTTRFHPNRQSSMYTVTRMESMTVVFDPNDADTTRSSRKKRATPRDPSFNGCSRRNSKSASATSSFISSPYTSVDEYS

Substance-P receptor, sequence (P25103 whole entry): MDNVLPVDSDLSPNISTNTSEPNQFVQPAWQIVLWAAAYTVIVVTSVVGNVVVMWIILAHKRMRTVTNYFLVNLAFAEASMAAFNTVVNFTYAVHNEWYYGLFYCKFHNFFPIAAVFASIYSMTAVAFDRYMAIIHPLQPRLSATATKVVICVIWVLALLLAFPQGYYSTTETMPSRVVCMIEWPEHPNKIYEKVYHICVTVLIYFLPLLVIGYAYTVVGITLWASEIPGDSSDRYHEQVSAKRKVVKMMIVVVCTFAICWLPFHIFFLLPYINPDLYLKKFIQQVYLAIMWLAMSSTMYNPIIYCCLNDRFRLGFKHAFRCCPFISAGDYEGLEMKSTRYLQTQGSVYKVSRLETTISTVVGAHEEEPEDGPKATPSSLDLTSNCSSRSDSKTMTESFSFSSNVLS

Compound | IC50 [1] [µM] | IC50 [2] [µM]
COC(=O)C1(Cc2ccccc2)CCc2ccc(Cc3ccccc3)cc21 (stereo unspecified) | 3 | 8
O=C(NCCc1ccccc1)C1(Cc2ccccc2)CCc2ccc(Cc3ccccc3)cc21 (stereo unspecified) | 2.4 | 3
CC(C)(C)CNC(=O)C1(Cc2ccccc2)CCc2ccc(Cc3ccccc3)cc21 (stereo unspecified) | – | 5.2
NC(=O)[C@H](Cc1ccccc1)NC(=O)[C@H](Cc1c[nH]c2ccccc12)NC(=O)OCc1ccccc1 (Cbz-Trp-Phe-NH2) | 9.3 | –
